Measurements as given in the NIST ThermoML archive (doi:10.1021/je600575r).
± gives the expanded uncertainty stated by the source. Blank lines part the entries; values can stand above or below the molecule they belong to.

Assay: Solid-liquid equilibrium temperature
Conditions: Crystal, visual observation

SMILES: CCCCCCCCCCCCCCCC1CCCCC1 [cyclohexane, pentadecyl-]
Solid-liquid equilibrium temperature (100 kPa): 298.1 ± 1.1 K
Solid-liquid equilibrium temperature (19300 kPa): 302.6 ± 1.1 K
Solid-liquid equilibrium temperature (40000 kPa): 307.6 ± 1.1 K
Solid-liquid equilibrium temperature (60100 kPa): 312.3 ± 1.1 K
Solid-liquid equilibrium temperature (80300 kPa): 316.8 ± 1.1 K
Solid-liquid equilibrium temperature (100100 kPa): 320.8 ± 1.1 K

SMILES: CCCCCCCCCCCCCC1CCCCC1 [cyclohexane, tridecyl-]
Solid-liquid equilibrium temperature (100 kPa): 286.9 ± 1.1 K
Solid-liquid equilibrium temperature (20000 kPa): 291.7 ± 1.1 K
Solid-liquid equilibrium temperature (40200 kPa): 296.3 ± 1.1 K
Solid-liquid equilibrium temperature (60000 kPa): 300.7 ± 1.1 K
Solid-liquid equilibrium temperature (80100 kPa): 304.9 ± 1.1 K
Solid-liquid equilibrium temperature (100000 kPa): 309.1 ± 1.1 K

SMILES: CCCCCCCCCCC1CCCCC1 [decylcyclohexane]
Solid-liquid equilibrium temperature (100 kPa): 271.3 ± 0.5 K
Solid-liquid equilibrium temperature (20000 kPa): 276 ± 0.5 K
Solid-liquid equilibrium temperature (40100 kPa): 280.5 ± 0.6 K
Solid-liquid equilibrium temperature (59900 kPa): 284.8 ± 0.6 K
Solid-liquid equilibrium temperature (80100 kPa): 289.2 ± 0.6 K
Solid-liquid equilibrium temperature (100100 kPa): 293.9 ± 0.6 K

SMILES: CCCCCCCCCCCCC1CCCCC1 [dodecylcyclohexane]
Solid-liquid equilibrium temperature (100 kPa): 285.8 ± 0.5 K
Solid-liquid equilibrium temperature (19500 kPa): 290.6 ± 0.6 K
Solid-liquid equilibrium temperature (39600 kPa): 295.2 ± 0.6 K
Solid-liquid equilibrium temperature (60900 kPa): 299.9 ± 0.6 K
Solid-liquid equilibrium temperature (79900 kPa): 304.2 ± 0.6 K
Solid-liquid equilibrium temperature (100000 kPa): 308.4 ± 0.6 K

SMILES: CCCCCCCCCCCCCCCCCCCC1CCCCC1 [nonadecylcyclohexane]
Solid-liquid equilibrium temperature (100 kPa): 315.7 ± 0.7 K
Solid-liquid equilibrium temperature (19800 kPa): 320.6 ± 0.7 K
Solid-liquid equilibrium temperature (39500 kPa): 324.8 ± 0.7 K
Solid-liquid equilibrium temperature (59800 kPa): 329.2 ± 0.7 K
Solid-liquid equilibrium temperature (78000 kPa): 333.7 ± 0.7 K

The next lines start with the values.

Solid-liquid equilibrium temperature (100 kPa): 314.3 ± 1.1 K
Solid-liquid equilibrium temperature (20000 kPa): 319.3 ± 1.1 K
Solid-liquid equilibrium temperature (39900 kPa): 324.2 ± 1.1 K
Solid-liquid equilibrium temperature (59600 kPa): 328.8 ± 1.1 K
SMILES: CCCCCCCCCCCCCCCCCCC1CCCCC1 [octadecylcyclohexane]

Solid-liquid equilibrium temperature (100 kPa): 297.2 ± 0.9 K
Solid-liquid equilibrium temperature (20000 kPa): 302.2 ± 0.9 K
Solid-liquid equilibrium temperature (39900 kPa): 307 ± 0.9 K
Solid-liquid equilibrium temperature (60000 kPa): 311.5 ± 0.9 K
Solid-liquid equilibrium temperature (79900 kPa): 316 ± 0.9 K
Solid-liquid equilibrium temperature (100100 kPa): 320.3 ± 1 K
SMILES: CCCCCCCCCCCCCCC1CCCCC1 [tetradecylcyclohexane]

Solid-liquid equilibrium temperature (100 kPa): 272.4 ± 0.8 K
Solid-liquid equilibrium temperature (20000 kPa): 276.8 ± 0.8 K
Solid-liquid equilibrium temperature (40000 kPa): 281.3 ± 0.8 K
Solid-liquid equilibrium temperature (60000 kPa): 285.7 ± 0.9 K
Solid-liquid equilibrium temperature (80500 kPa): 289.9 ± 0.9 K
Solid-liquid equilibrium temperature (100000 kPa): 293.9 ± 0.9 K
SMILES: CCCCCCCCCCCC1CCCCC1 [undecane, 1-cyclohexyl-]
